Columns and labels:
[1] = Stability during laundering of dyed fabrics (colour fastness, ΔE); type: physicochemical; settings: washed at 30° c.
Procedure: (§1) In order to assess the stability and colour fastness of violacein and violacein derivatives dyed onto fabrics, dyed fabrics were subjected to a number of conditions. Fabrics were dyed according to Example 18 and colour coordinates and colour change before and after exposure to a given condition were determined as described in Example 18. To measure temperature stability, fabrics were incubated in an oven set to 80° c. for 4 h. To measure stability under acid and alkaline conditions, fabrics were fully submerged in water solutions set to pH 8 with NaOH and pH 5 with HCl and incubated at room temperature for 30 minutes. Fabrics were then incubated at 37° c. for 4 h. To measure stability during laundering, fabrics were washed at 30° c. under the “mix” setting of a Siemens IQ300 washing machine, then dried in a Siemens IQ300 dryer until dry. To measure artificial light stability, fabrics were placed under an LED lamp at room temperature for 16 h. To measure UV light stability, fabrics were placed under a UV lamp at room temperature for 1 h.

[2] = Free radical scavenging ability of dyed Nylon 6,6 fabric (DPPH); type: biochemical; settings: dyed Nylon 6,6 fabric strip
Procedure: Violacein is reported as being a potent antioxidant able to effectively scavenge free radicals. […] To test this, 1.5×1.5 cm dyed Nylon 6,6 fabric strips were incubated in the dark at room temperature for 1 h in 5 mL of a 5×10^−5 M DPPH free radical solution in 100% ethanol. Undyed Nylon 6,6 fabric strips were included as a negative control. After 1 h absorbance was measured at 517 nm and % scavenging ability calculated as above.

[3] = UV stability of dyed fabrics (colour fastness, ΔE); type: physicochemical; settings: for ΔE: before vs after UV lamp, room temperature, 1 h
Procedure: as §1

[4] = Temperature stability of dyed fabrics (colour fastness, ΔE); type: physicochemical; settings: oven 80° c. for 4 h; for ΔE: before and after the stability test
Procedure: as §1

[5] = Acrylic, after test (UV lamp, room temperature, 1 h)
[6] = Bleached cotton, after test (UV lamp, room temperature, 1 h)
[7] = Diacetate, after test (UV lamp, room temperature, 1 h)
[8] = Nylon 6,6, after test (UV lamp, room temperature, 1 h)
[9] = Polyester, after test (UV lamp, room temperature, 1 h)
[10] = Wool, after test (UV lamp, room temperature, 1 h)

L ([1]; Acrylic, After test): 76.54 | a ([1]; Acrylic, After test): 1.43 | b ([1]; Acrylic, After test): 1.73 | L ([1]; Acrylic, Before test): 62.97 | a ([1]; Acrylic, Before test): 2.52 | b ([1]; Acrylic, Before test): 0.79 | ΔE ([1]; Acrylic, before and after the stability test): 13.65 | L ([1]; Bleached cotton, After test): 67.09 | a ([1]; Bleached cotton, After test): 2.56 | b ([1]; Bleached cotton, After test): −9.43 | L ([1]; Bleached cotton, Before test): 59.44 | a ([1]; Bleached cotton, Before test): 2.08 | b ([1]; Bleached cotton, Before test): −7.15 | ΔE ([1]; Bleached cotton, before and after the stability test): 8.00 | L ([1]; Diacetate, After test): 48.28 | a ([1]; Diacetate, After test): 7.64 | b ([1]; Diacetate, After test): −12.1 | L ([1]; Diacetate, Before test): 44.66 | a ([1]; Diacetate, Before test): 6.86 | b ([1]; Diacetate, Before test): −11.23 | ΔE ([1]; Diacetate, before and after the stability test): 3.80 | L ([1]; Nylon 6,6, After test): 36.95 | a ([1]; Nylon 6,6, After test): 5.38 | b ([1]; Nylon 6,6, After test): −21.45 | L ([1]; Nylon 6,6, Before test): 34.78 | a ([1]; Nylon 6,6, Before test): 4.7 | b ([1]; Nylon 6,6, Before test): −19.46 | ΔE ([1]; Nylon 6,6, before and after the stability test): 3.02 | L ([1]; Polyester, After test): 78.67 | a ([1]; Polyester, After test): 0.26 | b ([1]; Polyester, After test): 0.27 | L ([1]; Polyester, Before test): 69.07 | a ([1]; Polyester, Before test): 1.41 | b ([1]; Polyester, Before test): −0.67 | ΔE ([1]; Polyester, before and after the stability test): 9.71 | L ([1]; Wool, After test): 73.9 | a ([1]; Wool, After test): 1.48 | b ([1]; Wool, After test): 1.8 | L ([1]; Wool, Before test): 66.17 | a ([1]; Wool, Before test): 1.43 | b ([1]; Wool, Before test): 0.12 | ΔE ([1]; Wool, before and after the stability test): 7.91 | L [3, 5]: 62.36 | a [3, 5]: 1.52 | b [3, 5]: 0.96 | L ([3]; Acrylic, before test): 59.81 | a ([3]; Acrylic, before test): 2.39 | b ([3]; Acrylic, before test): 0.08 | ΔE ([3]; Acrylic): 2.83 | L [3, 6]: 58.38 | a [3, 6]: 3.17 | b [3, 6]: −5.79 | L ([3]; Bleached cotton, before test): 58.11 | a ([3]; Bleached cotton, before test): 3.63 | b ([3]; Bleached cotton, before test): −8.4 | ΔE ([3]; Bleached cotton): 2.66 | L [3, 7]: 43.08 | a [3, 7]: 10.1 | b [3, 7]: −9.59 | L ([3]; Diacetate, before test): 41.1 | a ([3]; Diacetate, before test): 9.04 | b ([3]; Diacetate, before test): −13.41 | ΔE ([3]; Diacetate): 4.43 | L [3, 8]: 35.29 | a [3, 8]: 4.36 | b [3, 8]: −18.03 | L ([3]; Nylon 6,6, before test): 34.58 | a ([3]; Nylon 6,6, before test): 4.58 | b ([3]; Nylon 6,6, before test): −19.61 | ΔE ([3]; Nylon 6,6): 1.75 | L [3, 9]: 68.13 | a [3, 9]: 1.99 | b [3, 9]: −0.71 | L ([3]; Polyester, before test): 67.13 | a ([3]; Polyester, before test): 1.68 | b ([3]; Polyester, before test): −1.12 | ΔE ([3]; Polyester): 1.12 | L [3, 10]: 68.91 | a [3, 10]: 2.13 | b [3, 10]: 1.49 | L ([3]; Wool, before test): 68.14 | a ([3]; Wool, before test): 0.77 | b ([3]; Wool, before test): 1.77 | ΔE ([3]; Wool): 1.59 | L ([4]; Acrylic, After test): 62.99 | a ([4]; Acrylic, After test): 2.58 | b ([4]; Acrylic, After test): −1.01 | L ([4]; Acrylic, Before test): 64.83 | a ([4]; Acrylic, Before test): 1.28 | b ([4]; Acrylic, Before test): 1.7 | ΔE ([4]; Acrylic): 3.52 | L ([4]; Bleached cotton, After test): 59.33 | a ([4]; Bleached cotton, After test): 3.72 | b ([4]; Bleached cotton, After test): −8.18 | L ([4]; Bleached cotton, Before test): 60.51 | a ([4]; Bleached cotton, Before test): 2.66 | b ([4]; Bleached cotton, Before test): −6.54 | ΔE ([4]; Bleached cotton): 2.28 | L ([4]; Diacetate, After test): 41.38 | a ([4]; Diacetate, After test): 10.6 | b ([4]; Diacetate, After test): −12.61 | L ([4]; Diacetate, Before test): 43.1 | a ([4]; Diacetate, Before test): 8.4 | b ([4]; Diacetate, Before test): −12.5 | ΔE ([4]; Diacetate): 2.79 | L ([4]; Nylon 6,6, After test): 33.74 | a ([4]; Nylon 6,6, After test): 5.53 | b ([4]; Nylon 6,6, After test): −19.85 | L ([4]; Nylon 6,6, Before test): 34.91 | a ([4]; Nylon 6,6, Before test): 5 | b ([4]; Nylon 6,6, Before test): −20.42 | ΔE ([4]; Nylon 6,6): 1.41 | L ([4]; Polyester, After test): 67.81 | a ([4]; Polyester, After test): 4.37 | b ([4]; Polyester, After test): −3.55 | L ([4]; Polyester, Before test): 68.98 | a ([4]; Polyester, Before test): 3.25 | b ([4]; Polyester, Before test): −1.56 | ΔE ([4]; Polyester): 2.57 | L ([4]; Wool, After test): 67.34 | a ([4]; Wool, After test): 1.87 | b ([4]; Wool, After test): −0.17 | L ([4]; Wool, Before test): 67 | a ([4]; Wool, Before test): 1.5 | b ([4]; Wool, Before test): 0.36 | ΔE ([4]; Wool): 0.73
Compound: O=C1NC(c2c[nH]c3ccc(O)cc23)=C/C1=C1\C(=O)Nc2ccccc21 [violacein]
OD517 ([2]; 1 h in the dark in 5×10^−5 M DPPH in 100% ethanol): 1.64 | Scavenging ability % ([2]; 1 h in the dark in 5×10^−5 M DPPH, vs undyed control): 27.53%

— patent publication US20260092179A1, “GENETICALLY MODIFIED HOST CELLS PRODUCING VIOLACEIN, ANALOGUES, AND DERIVATIVES THEREOF” (OCTARINE BIO APS, priority 2022, published 2026)
